Test system: naive T cells in PBMCs of HIV-1-seronegative individuals
Assay: In vitro priming of epitope-specific CD8+ T cells from naive T cells (accelerated dendritic cell coculture, tetramer staining)
Type: cell-based, human
Procedure: Naive CD8^+ T-cell precursors specific for HLA-B*52:01-restricted, HLA-A*24:02-restricted, or HLA-C*12:02-restricted ones were primed in vitro by using the accelerated dendritic cell coculture protocol ([23], [24], [56], [57]). On day 0, frozen-thawed PBMCs of HIV-1-seronegative individuals having the HLA-B*52:01-C*12:02 haplotype or HLA-A*24:02 were suspended at 5 × 10^6 cells/well in 24-well tissue culture plates containing AIM-V medium (Invitrogen) supplemented with Flt3L (50 ng/ml; R&D Systems). AIM-V medium supplemented with a 10 μM concentration of each peptide and STING ligand 3′3′-cGAMP (10 μg/ml; InvivoGen) was added on day 1, and then FCS was further added to 10% by volume per well on day 2. On day 10, the cells were collected and then stained with epitope-specific tetramers.
HLA-B*52:01-RI8, -MI8, -SI8, or -WV8 peptide tetrameric complexes (tetramers) and HLA-A*24:02-RF10, HLA-C*12:02-IY11, -MY9, or -RL9 complexes were generated as previously described ([58]). CD8^+ T cells specific for a given epitope were stained with phycoerythrin (PE)-conjugated epitope-specific tetramers at 37°C for 30 min. The cells were then washed twice with RPMI 1640 medium containing 5% FCS (R5), followed by staining with allophycocyanin (APC)-conjugated anti-CD8 MAb (Dako, Denmark) and 7-aminoactinomycin D (7-AAD; BD Pharmingen) at 4°C for 30 min. Finally, the cells were washed twice with R5 and then analyzed by using a FACS Canto II. Primed T cells unstained with tetramer were used as a negative control to determine gating of the tetramer^+ population. The tetramer^+ population was determined based on the gating of the negative control ([…] of tetramer^+ cells).

[1] = HIV-1-uninfected individuals having HLA-B*52:01-C*12:02 haplotype

With `Nc1nc2c(ncn2[C@@H]2O[C@@H]3COP(=O)(O)O[C@H]4[C@@H](O)[C@H](n5cnc6c(N)ncnc65)O[C@@H]4COP(=O)(O)O[C@H]3[C@H]2O)c(=O)[nH]1` [3′3′-cGAMP] the “priming of CD8+ T cells specific for HLA-B*52:01-restricted epitopes from naive T cells” value [1] was “effectively primed CD8^+ T cells specific for 3 of 4 HLA-B*52:01-restricted epitopes”, the “priming of CD8+ T cells specific for HLA-C*12:02-restricted epitopes from naive T cells” value [1] was “failed to prime those specific for all 3 HLA-C*12:02-restricted epitopes” and the “mean frequency of NefRF10-specific T cells ± 2 SD” value (stimulated with 3′3′-cGAMP (10 μg/ml) and NefRF10 peptide (10 μM) after Flt3 ligand 24 h, PBMCs from 7 HIV-1-seronegative HLA-A*24:02+ individuals, HLA-A*24:02-NefRF10 tetramer, 10-day culture, SD) was 0.206% ± 0.186%.
